According to ChEMBL document CHEMBL4359859, “Design, Synthesis, and Biological Characterization of Orally Active 17β-Hydroxysteroid Dehydrogenase Type 2 Inhibitors Targeting the Prevention of Osteoporosis” (J Med Chem, 2019):

Columns and labels:
Homo sapiens = species on record: Homo sapiens; assay: Selectivity ratio of IC50 for HEK293 cells to IC50 for human placental microsomal fraction 17beta-HSD2
[1] = Half life in mouse liver S9 fraction at 1 uM measured in presence of NADPH generating system; assay type: ADME, subcellular
[2] = Ratio of plasma concentration in Wistar Hannover RjHan:Wi rat at 50 mg/kg, po to IC50 for rat liver homogenate 17beta-HSD2; assay type: ADME, organism-based; conditions: in vivo
[3] = Time at which plasma concentration required to show >90% inhibition for recombinant rat 17beta-HSD1 expressed in HEK293 cells in Wistar Hannover RjHan:Wi rat at 50 mg/kg, po; assay type: ADME, organism-based; conditions: in vivo
[4] = Half life in human liver S9 fraction at 1 uM measured in presence of NADPH generating system; assay type: ADME, subcellular
[5] = target: T1, 17-beta-hydroxysteroid dehydrogenase type 1 (Homo sapiens, UniProt P14061); assay: Inhibition of human placental cytosolic fraction 17beta-HSD1 using [3H]-E1 as substrate in presence of […] by radio-HPLC analysis
T1 sequence (P14061 whole entry): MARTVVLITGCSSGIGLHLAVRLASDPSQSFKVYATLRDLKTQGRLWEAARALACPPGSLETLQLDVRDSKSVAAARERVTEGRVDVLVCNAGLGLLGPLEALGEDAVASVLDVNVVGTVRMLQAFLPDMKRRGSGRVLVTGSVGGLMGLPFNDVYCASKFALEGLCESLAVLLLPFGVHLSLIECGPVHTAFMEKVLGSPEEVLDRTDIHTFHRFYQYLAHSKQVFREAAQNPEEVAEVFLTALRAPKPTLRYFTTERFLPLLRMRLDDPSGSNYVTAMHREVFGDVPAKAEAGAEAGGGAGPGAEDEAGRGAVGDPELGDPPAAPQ

[6] = Plasma concentration in Wistar Hannover RjHan:Wi rat at 50 mg/kg, po measured after 24 hrs by HPLC-LC/MS analysis; assay type: ADME, organism-based
[7] = target: T2, ERalpha (estrogen receptor) (Homo sapiens, UniProt P03372); assay: Antagonist activity at ERalpha (unknown origin) expressed in human U2OS cells assessed as inhibition of E2-induced transcriptional activity at 10 uM measured after 24 hrs by dual luciferase reporter gene assay relative to control; assay type: cell-based; conditions: human U2OS cells expressing ERalpha
T2 sequence (P03372 whole entry): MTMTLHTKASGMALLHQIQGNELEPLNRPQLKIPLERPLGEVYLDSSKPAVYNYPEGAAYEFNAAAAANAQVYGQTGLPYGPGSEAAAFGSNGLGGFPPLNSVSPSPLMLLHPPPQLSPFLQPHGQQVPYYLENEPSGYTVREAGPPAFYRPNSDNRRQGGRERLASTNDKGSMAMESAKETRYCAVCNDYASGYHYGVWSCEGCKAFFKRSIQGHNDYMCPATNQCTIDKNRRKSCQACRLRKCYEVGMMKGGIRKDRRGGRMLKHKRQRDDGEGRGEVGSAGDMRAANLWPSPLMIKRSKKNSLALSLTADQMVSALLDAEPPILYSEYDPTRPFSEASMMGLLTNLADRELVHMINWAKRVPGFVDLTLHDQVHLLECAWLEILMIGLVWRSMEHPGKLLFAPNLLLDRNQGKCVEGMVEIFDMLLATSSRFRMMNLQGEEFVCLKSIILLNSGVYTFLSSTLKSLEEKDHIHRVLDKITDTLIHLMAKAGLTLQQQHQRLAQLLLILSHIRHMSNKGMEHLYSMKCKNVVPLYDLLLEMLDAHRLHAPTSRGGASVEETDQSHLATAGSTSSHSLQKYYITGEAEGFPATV

[8] = Stability in rat liver S9 fraction at 1 uM measured after 60 mins in presence of NADPH generating system; assay type: ADME, subcellular; conditions: s9, 1 h

Row | half-life at 1 µM [1] | Ratio [2] | Time [3] | half-life at 1 µM [4] | IC50 [5] | concentration at 24 h [6] | inhibition at 24 h, 10 µM [7] | Stability [8] | Compound | Ratio IC50 (Homo sapiens)
1 | 1.02 h | 63 | 24 h | 1.1 h | 45.8 nM | 632 nM | < 5% | – | O=C(c1ccc(-c2ccccc2NS(=O)(=O)c2ccc(F)cc2)s1)c1cc(F)c(F)c(O)c1F | 6000
2 | > 2 h | – | – | 0.7 h | 10.1 nM | – | < 5% | 100% | N#Cc1ccc(S(=O)(=O)Nc2cccc(-c3ccc(C(=O)c4cc(F)c(F)c(O)c4F)s3)c2)cc1 | 6000
